Earlier results in article PMC9923514 (Journal of chemical information and modeling, 2022).

Columns and labels:
ZIKV NS2B-NS3pro = ZIKV NS2B-NS3pro (Zika virus, UniProt A0A024B7W1); conditions: read-out: NS2B-NS3pro IC50; allosteric inhibitor
ZIKV NS5 RdRp = ZIKV NS5 RdRp (Zika virus, UniProt A0A024B7W1); conditions: for IC50: read-out: NS5 RdRp IC50
Sequence of ZIKV NS5 RdRp (A0A024B7W1 2521-3423): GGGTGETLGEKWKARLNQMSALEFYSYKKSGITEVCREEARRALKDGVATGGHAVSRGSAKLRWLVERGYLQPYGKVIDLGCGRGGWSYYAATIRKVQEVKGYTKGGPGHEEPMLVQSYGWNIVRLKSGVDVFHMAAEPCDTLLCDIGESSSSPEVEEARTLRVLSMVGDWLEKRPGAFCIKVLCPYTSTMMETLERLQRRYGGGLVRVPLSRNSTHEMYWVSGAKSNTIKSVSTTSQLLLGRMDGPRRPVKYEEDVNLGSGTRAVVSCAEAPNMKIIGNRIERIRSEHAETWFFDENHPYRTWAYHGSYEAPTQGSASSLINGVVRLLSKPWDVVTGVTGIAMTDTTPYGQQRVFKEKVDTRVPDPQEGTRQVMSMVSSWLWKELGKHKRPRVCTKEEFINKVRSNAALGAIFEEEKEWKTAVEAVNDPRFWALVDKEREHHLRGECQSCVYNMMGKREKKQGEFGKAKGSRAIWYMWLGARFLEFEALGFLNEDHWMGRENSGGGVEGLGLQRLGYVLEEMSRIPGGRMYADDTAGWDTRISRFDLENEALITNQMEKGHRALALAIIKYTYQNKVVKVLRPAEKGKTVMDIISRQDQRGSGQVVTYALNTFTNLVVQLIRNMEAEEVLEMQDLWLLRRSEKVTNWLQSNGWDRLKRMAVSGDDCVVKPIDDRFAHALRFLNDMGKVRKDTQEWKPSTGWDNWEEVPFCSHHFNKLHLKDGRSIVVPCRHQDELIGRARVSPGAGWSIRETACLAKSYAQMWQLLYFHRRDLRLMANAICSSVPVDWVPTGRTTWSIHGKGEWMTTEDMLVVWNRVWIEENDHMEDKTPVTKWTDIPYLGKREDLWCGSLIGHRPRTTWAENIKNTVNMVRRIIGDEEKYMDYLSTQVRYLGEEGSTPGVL

Sequence of ZIKV NS2B-NS3pro (A0A024B7W1 1503-1680): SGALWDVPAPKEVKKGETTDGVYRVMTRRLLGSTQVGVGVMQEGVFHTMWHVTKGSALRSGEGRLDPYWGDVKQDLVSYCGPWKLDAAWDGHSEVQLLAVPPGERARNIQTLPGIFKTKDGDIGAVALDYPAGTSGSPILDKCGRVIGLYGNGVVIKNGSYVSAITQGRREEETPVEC
Sequence of ZIKV NS2B-NS3pro (A0A024B7W1 1373-1502): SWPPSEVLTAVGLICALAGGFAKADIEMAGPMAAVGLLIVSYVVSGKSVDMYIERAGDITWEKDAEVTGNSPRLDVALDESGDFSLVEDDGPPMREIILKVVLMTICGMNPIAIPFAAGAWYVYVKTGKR

IC50 (ZIKV NS5 RdRp) | Structure (SMILES) | other results
 | Nc1cc(N)c(N=Nc2ccc(S(=O)(=O)Nc3nccs3)cc2)cc1N=Nc1ccc(S(=O)(=O)Nc2nccs2)cc1 [NSC86314] | IC50 (ZIKV NS2B-NS3pro): 1120 ± 110 nM
 | O[C@H]1[C@H]2c3cc4c(cc3CN3CCC(=C[C@@H]1O)[C@H]23)OCO4 [lycorine] | NS5 RdRp inhibition (ZIKV NS5 RdRp; at 50 μM): 60%
94 nM | O=C(NC(=S)Nc1ccc(N2CCN(C(=O)c3cccs3)CC2)cc1)c1sc2ccccc2c1Cl [TBP, 3-chloro-N-[({4-[4-(2-thienylcarbonyl)-1-piperazinyl]phenyl}amino)carbonothioyl]-1-benzothiophene-2-carboxamide] | 
2400 nM | CCCCCOCc1c(Nc2ccc(S(N)(=O)=O)cc2)nc(N2CCOCC2)nc1C(=O)NCCOc1ccccc1 [2-morpholino-5-((pentyloxy)methyl)-N-(2-phenoxyethyl)-6-((4-sulfamoylphenyl)amino)pyrimidine-4-carboxamide] | 
